According to patent publication US8653285B2 (Nippon Zoki Pharmaceutical Co., Ltd., priority 2008, dated 2014):
pIC50: −log10 of the molar value. Read-outs that look alike come from different tables or passages of the source.

Legend:
[1] = test system: histamine-induced vascular hyperpermeability; assay: Rat histamine-induced vascular hyperpermeability reaction (in vivo antihistamine action); conditions: SD male rat, oral administration, histamine injected intracutaneously 1 hour after administration, leaked Evans Blue; read-out: ED50
Protocol: An SD male rat (SPF) of 180 g in weight was previously fed for one week or more by allowing the rat to take a solid feed and tap water ad libitum, under the environment setting of a temperature of 22° C., humidity of 55% and an artificial illumination of 12 hours a day (light phase 8 am to 8 pm), and the rat was fasted overnight to be used for the experiment. Histamine.dihydrochloride (hereinafter referred to as histamine) and Evans Blue were used by dissolving each in physiological saline upon use. A substance to be tested was dissolved in water for injection or suspended in 0.5% carboxymethyl cellulose sodium, and the rat was orally administered with the solution or suspension (dose volume: 5 mL/kg body weight). After 1 hour from the administration, the physiological saline and the histamine solution were each intracutaneously injected to two locations (20 μg/0.05 ml/location) each on a back part of the rat of which hair was sheared with an electric clipper while anesthetizing with an ether. A 0.5% Evans Blue-containing physiological saline was injected into the tail vein of the rat (1 mL/200 g body weight) immediately before the intracutaneous injection of the histamine.
After 30 minutes, the animal was decapitated, and exsanguinated, and the skin was removed to measure an amount of leaked pigment in the blue-stained portion. The measurement of the amount of leaked pigment was carried out as follows. Skins of the pigment leaking site were cut out at two locations, 1 mL of a 2 mol/L aqueous potassium hydroxide solution was added thereto in a test tube, and the test tube was allowed to stand overnight at 37° C. to dissolve. Thereafter, 6 mL of a 1:3 mixed solution of 0.67 mol/L phosphoric acid and acetone was added to the solution, and the mixture was vigorously shaken for 10 minutes. Thereafter, the mixture was filtered, and the absorbance of the filtrate at 620 nm was measured. The absorbance obtained from the two locations of the sites injected with physiological saline, as blank value, was used for a compensation. The amount of leaked pigment was calculated from the calibration curve of Evans Blue at 620 nm.

[2] = target: human histamine H1 receptor (Homo sapiens, UniProt P35367); assay: In vitro human histamine H1 receptor binding experiment ([3H]pyrilamine, HEK293A cells stably expressing the receptor); conditions: [3H]pyrilamine 3 nmol/L, room temperature 60 minutes
Protocol: Recombinant human histamine H1 receptor plasmid (prepared by Invitrogen) was transfected to HEK293A cells with Lipofectamine 2000 (Invitrogen). Cells stably expressing human histamine H1 receptor were screened with Geneticin (Invitrogen). The cells were continued to be cultured using a Dulbecco's Modified Eagle Medium containing 10% fetal bovine serum, 0.1 mmol/L MEM Non-Essential Amino Acids Solution, 2 mmol/L L-glutamine and 0.7 mg/mL Geneticin in a 5% CO2 incubator at 37° C. The cells stably expressing human histamine H1 receptor were prepared using 50 mmol/L Tris-HCl (pH 7.5) (hereinafter referred to as buffer) containing 0.1% bovine serum albumin, so as to have a concentration of 3×10^6 cells/mL, to give a cell sample preparation. Fifty microliters of the buffer, 50 μL of a test substance solution at various concentrations, and 50 μL of [^3H]pyrilamine solution (final concentration: 3 nmol/L) were added to each of the wells on the 96-well plate, and stirred, and 100 μL of the cell sample preparation was then added thereto (at a concentration of 3×10^5 cells/well) to initiate the reaction.
The cells were incubated at room temperature for 60 minutes, and then filtered on UniFilter GF/C plate (Packard) immersed in 0.5% polyethyleneimine using a cell harvester (IH-110, INNOTECH CORPORATION), to stop the reaction, and the plate was washed with the buffer. The plate after washing was sufficiently dried, and 20 μL of a scintillator (MaxiLight, manufactured by Hidex) was added thereto, and count per minute (cpm) was measured with a multi-labeled microplate reader (Plate Chameleo II, Hidex). The nonspecific binding was cpm in a case where 30 μmol/L pyrilamine was added. The experiments were carried out at n=3, and at least repeated 3 times.

cerebral H1 receptor = target: T1, cerebral H1 receptor (Mus musculus, UniProt P70174); assay: Murine cerebral H1 receptor occupying content (ex vivo, 3H-pyrilamine binding in brain homogenate after oral administration)
T1 construct: The excised brain tissue was homogenized with Polytron (Kinematica); from tissue; host or cells: ICR mouse brain (entire brain except cerebellum and medulla oblongata), homogenate
Protocol: A 6-week-old ICR male mouse was previously fed for one week or more by allowing the mouse to take a solid feed and tap water ad libitum, under the environment setting of a temperature of 22° C., humidity of 55% and an artificial illumination of 12 hours a day, and the mouse was fasted overnight to be used for the experiment. A substance to be tested was dissolved with water for injection or suspended in 0.5% carboxymethyl cellulose solution, and the solution or suspension was orally administered to the mouse (dose volume: 0.1 mL/10 g body weight). After 1 hour from the oral administration, the mouse was decapitated, and the entire brain, except for cerebellum and medulla oblongatae, was rapidly excised. The excised brain tissue was homogenized with Polytron (Kinematica) in an ice-cooled 50 mmol/L phosphate buffered saline (pH 7.4, 100 mg/1.9 mL).
To a test tube for reaction (TPX-Tube) were added 180 μL of the brain homogenate, and 10 μL of ^3H-pyrilamine solution (final concentration: 2 nmol/L) and 10 μL of a non-labeled pyrilamine solution (final concentration: 200 μmol/L) or a 50 mmol/L phosphate buffered saline, and the mixture was incubated at room temperature for 45 minutes, and 2.0 mL of an ice-cooled, 50 mmol/L phosphate buffered saline was then added thereto to stop the reaction. The reaction mixture was filtered with a GF/B filter ([…]), and the filtrate was placed in a vial and dried overnight at 60 degrees. After drying, 10 mL of a scintillator (AL-1, toluene-based, DOJINDO LABORATORIES) was added to the product, and the disintegration per minute (dpm) was measured with a liquid scintillation counter (Packard, U.S.A., TRI-CARB 2700TR) (5 minutes/vial).

T1 sequence (P70174 whole entry): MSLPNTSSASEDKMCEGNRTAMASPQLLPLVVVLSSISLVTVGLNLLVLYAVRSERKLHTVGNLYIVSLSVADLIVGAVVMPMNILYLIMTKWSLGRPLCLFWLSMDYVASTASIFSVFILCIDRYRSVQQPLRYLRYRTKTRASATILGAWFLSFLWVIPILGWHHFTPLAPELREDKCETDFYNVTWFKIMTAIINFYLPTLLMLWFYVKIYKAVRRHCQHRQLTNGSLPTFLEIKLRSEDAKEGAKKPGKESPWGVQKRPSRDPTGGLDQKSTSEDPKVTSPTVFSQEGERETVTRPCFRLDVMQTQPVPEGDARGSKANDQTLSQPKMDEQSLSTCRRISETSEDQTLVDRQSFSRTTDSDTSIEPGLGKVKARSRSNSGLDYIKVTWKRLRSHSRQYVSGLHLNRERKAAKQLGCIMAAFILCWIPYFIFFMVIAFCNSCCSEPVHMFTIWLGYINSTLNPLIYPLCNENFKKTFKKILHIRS
Sequence of human histamine H1 receptor (P35367 whole entry): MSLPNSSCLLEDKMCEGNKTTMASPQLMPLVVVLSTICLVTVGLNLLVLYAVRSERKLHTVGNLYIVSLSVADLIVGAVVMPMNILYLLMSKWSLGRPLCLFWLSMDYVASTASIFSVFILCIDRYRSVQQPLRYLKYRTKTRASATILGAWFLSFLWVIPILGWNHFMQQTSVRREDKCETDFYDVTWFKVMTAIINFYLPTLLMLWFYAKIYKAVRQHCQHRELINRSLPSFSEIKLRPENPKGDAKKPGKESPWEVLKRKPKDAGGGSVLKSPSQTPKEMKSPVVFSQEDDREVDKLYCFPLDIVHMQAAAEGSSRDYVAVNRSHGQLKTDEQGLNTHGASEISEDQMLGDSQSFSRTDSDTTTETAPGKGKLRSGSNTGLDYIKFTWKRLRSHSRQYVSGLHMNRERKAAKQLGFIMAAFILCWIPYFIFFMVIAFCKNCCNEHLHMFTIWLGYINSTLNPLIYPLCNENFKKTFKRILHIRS

| ED50 (cerebral H1 receptor; ICR male mouse, oral administration, brain excised after 1 hour, larger ID50 = lower brain transfer, read-out: ID50 (the source's name)) [mg/kg] | Structure (SMILES) | ED50 [1] [mg/kg] | pIC50 [2] | ED50 (cerebral H1 receptor; mouse, po, 1 h, read-out: ID50) [mg/kg] |
| --- | --- | --- | --- | --- |
| > 200 | O=C(O)CCc1ccc2c(c1)/C(=C/CCN1CCCC1)c1ccsc1CO2 [Compound 59, (Z)-3-{4-[3-(Pyrrolidin-1-yl)propylidene]-4,10-dihydro-9-oxa-1-thiabenzo[f]azulen-6-yl}propionic acid] | ~0.3 | 7.44 |  |
|  | Cl.O=C(O)Cc1ccc2c(c1)/C(=C\CCN1CCCC1)c1sccc1CO2 [Compound 70, (E)-{4-[3-(Pyrrolidin-1-yl)propylidene]-4,10-dihydro-9-oxa-3-thiabenzo[f]azulen-6-yl}acetic acid hydrochloride] | 0.42 | 7.84 | 51.4 |
|  | Cl.O=C(O)Cc1ccc2c(c1)/C(=C/CCN1CCCC1)c1sccc1CO2 [Compound 71, (Z)-{4-[3-(Pyrrolidin-1-yl)propylidene]-4,10-dihydro-9-oxa-3-thiabenzo[f]azulen-6-yl}acetic acid hydrochloride] | 0.83 | 7.20 | > 80 |
